Data published in patent publication US12077503B2, “Substituted cyclic amides and their use as herbicides” (FMC CORPORATION, priority 2015, dated 2024).

Legend:
Type in all cases: in vivo
[1] = tested on: barnyardgrass (Echinochloa crus-galli); assay: Test G Post-Emergence Protocol; conditions: Echinochloa crus-galli, post-emergence, 312 h, read-out: Barnyardgrass damage rating
Summary of the method: (§1)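 Values are percent visual injury at 13 days after treatment (0 none, 100 total). Treatment was a post-emergence spray at 15.625, 62.5 or 250 g/ha on 8-day-old pot plants kept at 24/16 °C.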

corn (Zea mays) [2] = assay: Test G Post-Emergence Protocol; conditions: Zea mays, post-emergence, 312 h, read-out: Corn damage rating
Summary of the method: as §1

[3] = tested on: velvetleaf (Abutilon theophrasti); assay: Test G Post-Emergence Protocol; conditions: Abutilon theophrasti, post-emergence, 312 h, read-out: Velvetleaf damage rating
Summary of the method: as §1

[4] = tested on: giant foxtail (Setaria faberi); assay: Test G Post-Emergence Protocol; conditions: Setaria faberi, post-emergence, 312 h, read-out: Foxtail, Giant damage rating
Summary of the method: as §1

[5] = tested on: redroot pigweed (Amaranthus retroflexus); assay: Test G Post-Emergence Protocol; conditions: Amaranthus retroflexus, post-emergence, 312 h, read-out: Pigweed, Redroot damage rating
Summary of the method: as §1

[6] = tested on: ivy-leaved morning glory (Ipomoea hederacea); assay: Test G Post-Emergence Protocol; conditions: Ipomoea, post-emergence, 312 h, read-out: Morningglory, Ivy-leaved damage rating
Summary of the method: as §1

[7] = tested on: barnyardgrass (Echinochloa crus-galli); assay: Test G Pre-Emergence Protocol; conditions: Echinochloa crus-galli, pre-emergence, 312 h, evaluated after 13 days
Summary of the method: (§2)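 Pots of seeds in standard soil were grown for one day in a glasshouse (24/16 °C day/night, 14 h light, 65% humidity), then sprayed with compound in acetone/water 50:50 with 0.5% Tween 20 at 15.625, 62.5 or 250 g/ha. Damage was scored after 13 days on a 0 (none) to 100 (total) scale.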

corn (Zea mays) [8] = assay: Test G Pre-Emergence Protocol; conditions: Zea mays, pre-emergence, 312 h, evaluated after 13 days
Summary of the method: as §2

[9] = tested on: velvetleaf (Abutilon theophrasti); assay: Test G Pre-Emergence Protocol; conditions: Abutilon theophrasti, pre-emergence, 312 h, evaluated after 13 days
Summary of the method: as §2

[10] = tested on: giant foxtail (Setaria faberi); assay: Test G Pre-Emergence Protocol; conditions: Setaria faberi, pre-emergence, 312 h, evaluated after 13 days
Summary of the method: as §2

[11] = tested on: redroot pigweed (Amaranthus retroflexus); assay: Test G Pre-Emergence Protocol; conditions: Amaranthus retroflexus, pre-emergence, 312 h, evaluated after 13 days
Summary of the method: as §2

[12] = tested on: ivy-leaved morning glory (Ipomoea hederacea); assay: Test G Pre-Emergence Protocol; conditions: Ipomoea, pre-emergence, 312 h, evaluated after 13 days
Summary of the method: as §2

[13] = 15.625 g ai/ha, evaluated after 13 days (100=total damage to plant; 0=no damage to plant)
[14] = 62.5 g ai/ha, evaluated after 13 days, 100=total damage to plant, 0=no damage to plant
[15] = 250 g ai/ha, evaluated after 13 days, 100=total damage to plant, 0=no damage to plant

CN1C[C@H](c2ccc(C(F)(F)F)cc2)[C@@H](C(=O)Nc2cnccc2[N+](=O)[O-])C1=O (racemic) [Compound 1729]
0%: pest or weed control at 15.625 g/ha [1, 13] | pest or weed control at 62.5 g/ha [1, 14] | pest or weed control at 250 g/ha [1, 15] | plant injury at 15.625 g/ha (corn (Zea mays) [2]; [13]) | plant injury at 62.5 g/ha (corn (Zea mays) [2]; [14]) | plant injury at 250 g/ha (corn (Zea mays) [2]; [15]) | pest or weed control at 15.625 g/ha [3, 13] | pest or weed control at 62.5 g/ha [3, 14] | pest or weed control at 250 g/ha [3, 15] | pest or weed control at 15.625 g/ha [4, 13] | pest or weed control at 62.5 g/ha [4, 14] | pest or weed control at 250 g/ha [4, 15] | pest or weed control at 15.625 g/ha [5, 13] | pest or weed control at 62.5 g/ha [5, 14] | pest or weed control at 250 g/ha [5, 15] | pest or weed control at 15.625 g/ha [6, 13] | pest or weed control at 62.5 g/ha [6, 14] | pest or weed control at 250 g/ha [6, 15] | pest or weed control at 15.625 g/ha ([7]; 15.625 g ai/ha, read-out: Barnyardgrass damage rating (100=total damage to plant; 0=no damage to plant)) | pest or weed control at 62.5 g/ha ([7]; 62.5 g ai/ha, 100=total damage to plant, 0=no damage to plant, read-out: Barnyardgrass damage rating) | pest or weed control at 250 g/ha ([7]; 250 g ai/ha, read-out: Barnyardgrass damage rating (100=total damage to plant; 0=no damage to plant)) | plant injury at 15.625 g/ha (corn (Zea mays) [8]; 15.625 g ai/ha, read-out: Corn damage rating (100=total damage to plant; 0=no damage to plant)) | plant injury at 62.5 g/ha (corn (Zea mays) [8]; 62.5 g ai/ha, 100=total damage to plant, 0=no damage to plant, read-out: Corn damage rating) | plant injury at 250 g/ha (corn (Zea mays) [8]; 250 g ai/ha, read-out: Corn damage rating (100=total damage to plant; 0=no damage to plant)) | pest or weed control at 15.625 g/ha ([9]; 15.625 g ai/ha, read-out: Velvetleaf damage rating (100=total damage to plant; 0=no damage to plant)) | pest or weed control at 62.5 g/ha ([9]; 62.5 g ai/ha, 100=total damage to plant, 0=no damage to plant, read-out: Velvetleaf damage rating) | pest or weed control at 250 g/ha ([9]; 250 g ai/ha, read-out: Velvetleaf damage rating (100=total damage to plant; 0=no damage to plant)) | pest or weed control at 15.625 g/ha ([10]; 15.625 g ai/ha, read-out: Foxtail, Giant damage rating (100=total damage to plant; 0=no damage to plant)) | pest or weed control at 62.5 g/ha ([10]; 62.5 g ai/ha, 100=total damage to plant, 0=no damage to plant, read-out: Foxtail, Giant damage rating) | pest or weed control at 250 g/ha ([10]; 250 g ai/ha, read-out: Foxtail, Giant damage rating (100=total damage to plant; 0=no damage to plant)) | pest or weed control at 15.625 g/ha ([11]; 15.625 g ai/ha, read-out: Pigweed, Redroot damage rating (100=total damage to plant; 0=no damage to plant)) | pest or weed control at 62.5 g/ha ([11]; 62.5 g ai/ha, 100=total damage to plant, 0=no damage to plant, read-out: Pigweed, Redroot damage rating) | pest or weed control at 250 g/ha ([11]; 250 g ai/ha, read-out: Pigweed, Redroot damage rating (100=total damage to plant; 0=no damage to plant)) | pest or weed control at 15.625 g/ha ([12]; 15.625 g ai/ha, read-out: Morningglory, Ivy-leaved damage rating (100=total damage to plant; 0=no damage to plant)) | pest or weed control at 62.5 g/ha ([12]; 62.5 g ai/ha, 100=total damage to plant, 0=no damage to plant, read-out: Morningglory, Ivy-leaved damage rating) | pest or weed control at 250 g/ha ([12]; 250 g ai/ha, read-out: Morningglory, Ivy-leaved damage rating (100=total damage to plant; 0=no damage to plant))
